Residue numbers refer to the chain shown, from its start.
Assays:
[1] = target: T1, 5-HT3A receptor F130A mutant (Homo sapiens, UniProt P46098, F125A); assay: two-electrode voltage clamp, F130A mutant receptor in Xenopus oocytes; assay type: cell-based; details: 100 µM chanoclavine, read-out: Inhibition Percentage (%)
T1 construct: host or cells: Xenopus laevis oocytes injected with in vitro transcribed mRNA
T1 sequence (P46098 24-478 F125A): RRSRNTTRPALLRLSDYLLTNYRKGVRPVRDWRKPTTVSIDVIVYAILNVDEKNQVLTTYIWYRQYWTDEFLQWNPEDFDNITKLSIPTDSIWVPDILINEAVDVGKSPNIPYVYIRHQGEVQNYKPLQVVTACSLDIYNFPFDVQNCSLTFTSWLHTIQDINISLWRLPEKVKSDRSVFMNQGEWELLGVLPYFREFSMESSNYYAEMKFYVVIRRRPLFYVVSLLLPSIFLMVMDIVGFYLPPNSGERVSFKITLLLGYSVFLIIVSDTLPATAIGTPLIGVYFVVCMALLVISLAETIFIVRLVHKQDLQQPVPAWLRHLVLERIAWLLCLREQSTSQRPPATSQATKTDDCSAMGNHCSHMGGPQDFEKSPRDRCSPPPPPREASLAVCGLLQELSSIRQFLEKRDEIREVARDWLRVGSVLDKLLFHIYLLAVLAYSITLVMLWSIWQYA
Experimental: (§1) The site-directed mutation of one or two amino acids was performed using sense and antisense primers and Pfu polymerase (QuickChange Site-Directed Mutagenesis Kit; Agilent, Santa Clara, CA, USA) and amplified by polymerase chain reaction (PCR) to increase the target domain. After removing the existing methylated cDNA using Dpn Ⅰ, the PCR products were transformed into Escherichia coli strain DH5α. The cDNA of the 5-HT3A receptor was linearized by Xho Ⅰ at the end of the multi-cloning site, followed by transcription using T7 polymerase and a transcription kit (mMESSAGE mMACHINE T7 Transcription Kit; Thermo Fisher Scientific, Waltham, MA, USA). […]
(§2) To isolate oocytes, female Xenopus laevis were put into a container filled with ice and left for about one hour. […] When the Xenopus oocytes were ready for injection, 50 ng of mRNA was injected with a nanoliter injector (Drummond Scientific, Vernon Hills, IL, USA). […]
(§3) The oocytes in which mRNA was expressed during the incubation period allowed for the estimation of channel or receptor properties for observing drug and ligand potential interactions using a two-electrode voltage clamp (OC-725C; Warner Instruments, Hamden, CT, USA) and Digidata (1322A; Molecular Devices, Sunnyvale, CA, USA). […] The voltage and current electrodes were filled with 3 M KCl (0.3–0.7 MΩ) and analyzed at a −80 mV holding potential. […]

[2] = system: mice; parameters: method as in PMID 31052510; details: mice ref 32; cited from earlier work
[3] = target: T2, 5-HT3A receptor S136A mutant (Homo sapiens, UniProt P46098, S131A); assay: two-electrode voltage clamp, S136A mutant receptor in Xenopus oocytes; assay type: cell-based; details: 100 µM chanoclavine, read-out: Inhibition Percentage (%)
T2 construct: host or cells: Xenopus laevis oocytes injected with in vitro transcribed mRNA
T2 sequence (P46098 24-478 S131A): T1 sequence (P46098 24-478 F125A) with A102F, S108A
Experimental: as §1, §2, §3

[4] = target: T3, 5-HT3A receptor N138A mutant (Homo sapiens, UniProt P46098, N133A); assay: two-electrode voltage clamp, N138A mutant receptor in Xenopus oocytes; assay type: cell-based; details: 100 µM chanoclavine, read-out: Inhibition Percentage (%)
T3 construct: host or cells: Xenopus laevis oocytes injected with in vitro transcribed mRNA
T3 sequence (P46098 24-478 N133A): T1 sequence (P46098 24-478 F125A) with A102F, N110A
Experimental: as §1, §2, §3

## CN[C@@H]1Cc2c[nH]c3cccc(c23)[C@H]1/C=C(\C)CO [chanoclavine]
[1]
  inhibition at 100 µM: 9.36 ± 4.3%
[2]
  toxicity (gross hematology, blood chemistry, pathology, histology): low toxicity
[3]
  inhibition at 100 µM: 68.4 ± 6.1%
[4]
  inhibition at 100 µM: -1.64 ± 6.2%

Source: paper PMC7956620 (Molecules, 2021)
